According to US12552783B2, “Modulators of proteolysis and associated methods of use” (Arvinas Operations, Inc., priority 2018, dated 2026):

Target: KRas (Homo sapiens, UniProt P01116, G12C)
Test: KRas degradation in NCI-H2030 cells by Western blot, normalized to GAPDH (data of Table 14)
Format: cell-based
Design: host or cells: NCI-H2030
Conditions: for Dmax: NCI-H2030
Summary of the method: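 KRas/GAPDH band ratio vs DMSO lane gives % degradation; values under 25% were estimated visually, the rest quantitated. Cells are G12C homozygous, serum-free for 24 h, then dosed at 0.3/1/3 μM (0.1% DMSO). VHL-based compounds 24 h, others 72 h.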

| Structure (SMILES) | Percent Degradation at Indicated Concentration (μM) (H2030 cells, 3 μM) | Percent Degradation at Indicated Concentration (μM): 0.3 (H2030 cells, 0.3 μM) | Percent Degradation at Indicated Concentration (μM): 1 (H2030 cells, 1 μM) | Dmax (H2030 cells) [%] | Percent Degradation at Indicated Concentration (μM) (H2030, 0.3 μM) | Percent Degradation at Indicated Concentration (μM) (H2030, 1 μM) | Percent Degradation at Indicated Concentration (μM) (H2030, 3 μM) | Dmax [%] | other results |
| --- | --- | --- | --- | --- | --- | --- | --- | --- | --- |
| C=CC(=O)N1CCN(c2nc(O[C@H](C)CN3CCC(OCCOCCOCCOc4ccc5c(c4)CN(C4CCC(=O)NC4=O)C5=O)CC3)nc3c2CCN(c2cc(O)cc4ccccc24)C3)CC1 (stereo partly drawn) [compound 423, 3-(5-(2-(2-(2-((1-((R)-2-((4-(4-acryloylpiperazin-1-yl)-7-(3-hydroxynaphthalen-1-yl)-5,6,7,8-tetrahydropyrido[3,4-d]pyrimidin-2-yl)oxy)propyl)piperidin-4-yl)oxy)ethoxy)ethoxy)ethoxy)-1-oxoisoindolin-2-yl)piperidine-2,6-dione] | C (Percent Degradation: C ≤ 35) |  |  |  |  |  |  |  | Percent Degradation at Indicated Concentration (μM) (H2030 cells, 0.3 μM): C (Percent Degradation: C ≤ 35); Percent Degradation at Indicated Concentration (μM) (H2030 cells, 1 μM): C (Percent Degradation: C ≤ 35) |
| C=CC(=O)N1CCN(c2nc(O[C@H](C)CN3CCC(OCCOCCNc4cccc5c4C(=O)N(C4CCC(=O)NC4=O)C5=O)CC3)nc3c2CCN(c2cc(O)cc4ccccc24)C3)CC1 (stereo partly shown) [compound 412] | C (Percent Degradation: C ≤ 35) |  |  |  |  |  |  |  | Percent Degradation at Indicated Concentration (μM) (H2030 cells, 0.3 μM): C (Percent Degradation: C ≤ 35); Percent Degradation at Indicated Concentration (μM) (H2030 cells, 1 μM): C (Percent Degradation: C ≤ 35) |
| C=CC(=O)N1CCN(c2nc(NCCC(=O)N(C)CCOCCOc3ccc4c(c3)CN(C3CCC(=O)NC3=O)C4=O)nc3c(F)c(-c4c(O)cccc4F)c(Cl)cc23)CC1 [compound 89, 3-((4-(4-acryloylpiperazin-1-yl)-6-chloro-8-fluoro-7-((S)-2-fluoro-6-hydroxyphenyl)quinazolin-2-yl)amino)-N-(2-(2-((2-(2,6-dioxopiperidin-3-yl)-1-oxoisoindolin-5-yl)oxy)ethoxy)ethyl)-N-methylpropanamide] |  |  |  |  | C (Percent Degradation: C ≤ 35) | C (Percent Degradation: C ≤ 35) | C (Percent Degradation: C ≤ 35) | ≤ 35 |  |
| C=CC(=O)N1CCN(c2nc(O[C@H](C)CN3CCC(OCCOCCOCCNc4cccc5c4C(=O)N(C4CCC(=O)NC4=O)C5=O)CC3)nc3c2CCN(c2cc(O)cc4ccccc24)C3)CC1 (stereo partly drawn) [compound 413, 4-((2-(2-(2-((1-((R)-2-((4-(4-acryloylpiperazin-1-yl)-7-(3-hydroxynaphthalen-1-yl)-5,6,7,8-tetrahydropyrido[3,4-d]pyrimidin-2-yl)oxy)propyl)piperidin-4-yl)oxy)ethoxy)ethoxy)ethyl)amino)-2-(2,6-dioxopiperidin-3-yl)isoindoline-1,3-dione] | C (Percent Degradation: C ≤ 35) |  |  |  |  |  |  |  | Percent Degradation at Indicated Concentration (μM) (H2030 cells, 0.3 μM): C (Percent Degradation: C ≤ 35); Percent Degradation at Indicated Concentration (μM) (H2030 cells, 1 μM): C (Percent Degradation: C ≤ 35) |
| CCC(=O)N1CCN(c2nc(NCCC(=O)N(C)CCNc3cccc4c3C(=O)N(C3CCC(=O)NC3=O)C4=O)nc3c(F)c(-c4cc(O)cc5ccccc45)c(Cl)cc23)CC1 (stereo not shown) [compound 41, 3-((6-chloro-8-fluoro-7-(3-hydroxynaphthalen-1-yl)-4-(4-propionylpiperazin-1-yl)quinazolin-2-yl)amino)-N-(2-((2-(2,6-dioxopiperidin-3-yl)-1,3-dioxoisoindolin-4-yl)amino)ethyl)-N-methylpropanamide] |  | C (C ≤ 35) | C (C ≤ 35) | ≤ 35 |  |  |  |  | Percent Degradation at Indicated Concentration (μM): 3 (H2030 cells, 3 μM): C (C ≤ 35) |
| CN(C)C(=O)CCNc1nc(N2CCN(C(=O)/C=C/CCOc3ccc4c(c3)C(=O)N(C3CCC(=O)NC3=O)C4=O)CC2)c2cc(Cl)c(-c3cc(O)cc4ccccc34)c(F)c2n1 (stereo not shown) [compound 468] |  |  |  |  | C (Percent Degradation: C ≤ 35) | C (Percent Degradation: C ≤ 35) | C (Percent Degradation: C ≤ 35) | ≤ 35 |  |
| C=CC(=O)N1CCN(c2nc(NCCC(=O)N(C)CCNc3cccc4c3C(=O)N(C3CCC(=O)NC3=O)C4=O)nc3c(F)c(-c4cc(O)cc5ccccc45)c(Cl)cc23)CC1 (stereo not shown) [compound 55, 3-((4-(4-acryloylpiperazin-1-yl)-6-chloro-8-fluoro-7-(3-hydroxynaphthalen-1-yl)quinazolin-2-yl)amino)-N-(2-((2-(2,6-dioxopiperidin-3-yl)-1,3-dioxoisoindolin-4-yl)amino)ethyl)-N-methylpropanamide] |  | C (C ≤ 35) | C (C ≤ 35) | ≤ 35 |  |  |  |  | Percent Degradation at Indicated Concentration (μM): 0.1 (H2030 cells, 0.1 μM): C (C ≤ 35) |

Second part, led by results:

| Percent Degradation at Indicated Concentration (μM) (H2030 cells, 3 μM) | Percent Degradation at Indicated Concentration (μM): 0.3 (H2030 cells, 0.3 μM) | Percent Degradation at Indicated Concentration (μM): 1 (H2030 cells, 1 μM) | Dmax (H2030 cells) [%] | Percent Degradation at Indicated Concentration (μM) (H2030, 0.3 μM) | Percent Degradation at Indicated Concentration (μM) (H2030, 1 μM) | Percent Degradation at Indicated Concentration (μM) (H2030, 3 μM) | Dmax [%] | Structure (SMILES) | other results |
| --- | --- | --- | --- | --- | --- | --- | --- | --- | --- |
|  | C (C ≤ 35) | C (C ≤ 35) | ≤ 35 |  |  |  |  | CCC(=O)N1CCN(c2nc(NCCC(=O)N(C)CCOCCOCCOCCOc3cc(-c4scnc4C)ccc3CNC(=O)[C@@H]3C[C@@H](O)CN3C(=O)[C@H](c3cc(C)no3)C(C)C)nc3c(F)c(-c4cc(O)cc5ccccc45)c(Cl)cc23)CC1 [compound 335, (2S,4R)-N-(2-((15-((6-chloro-8-fluoro-7-(3-hydroxynaphthalen-1-yl)-4-(4-propionylpiperazin-1-yl)quinazolin-2-yl)amino)-12-methyl-13-oxo-3,6,9-trioxa-12-azapentadecyl)oxy)-4-(4-methylthiazol-5-yl)benzyl)-4-hydroxy-1-((S)-3-methyl-2-(3-methylisoxazol-5-yl)butanoyl)pyrrolidine-2-carboxamide] | Percent Degradation at Indicated Concentration (μM): 3 (H2030 cells, 3 μM): C (C ≤ 35) |
|  |  |  |  | C (Percent Degradation: C ≤ 35) | C (Percent Degradation: C ≤ 35) | C (Percent Degradation: C ≤ 35) | ≤ 35 | C=CC(=O)N1CCN(c2nc(NCCC(=O)N(C)CCOCCOCCN3CCN(CC(=O)N[C@H](C(=O)N4C[C@H](O)C[C@H]4C(=O)N[C@@H](C)c4ccc(-c5scnc5C)cc4)C(C)(C)C)CC3)nc3c(F)c(-c4cc(O)cc5ccccc45)c(Cl)cc23)CC1 [compound 249, (2S,4R)-1-((2S)-2-(2-(4-(2-(2-(2-(3-((4-(4-acryloylpiperazin-1-yl)-6-chloro-8-fluoro-7-(3-hydroxynaphthalen-1-yl)quinazolin-2-yl)amino)-N-methylpropanamido)ethoxy)eth-oxy)ethyl)piperazin-1-yl)acetamido)-3,3-dimethylbutanoyl)-4-hydroxy-N-((S)-1-(4-(4-methylthiazol-5-yl)phenyl)ethyl)pyrrolidine-2-carboxamide] |  |
|  |  |  |  | C (Percent Degradation: C ≤ 35) | C (Percent Degradation: C ≤ 35) | C (Percent Degradation: C ≤ 35) | ≤ 35 | CN(C)C(=O)CCNc1nc(N2CCN(C(=O)/C=C/CCOCCOCCOCCOc3ccc4c(c3)C(=O)N(C3CCC(=O)NC3=O)C4=O)CC2)c2cc(Cl)c(-c3cc(O)cc4ccccc34)c(F)c2n1 (stereo not shown) [compound 174, (E)-3-((6-chloro-4-(4-(5-(2-(2-(2-((2-(2,6-dioxopiperidin-3-yl)-1,3-dioxoisoindolin-5-yl)oxy)ethoxy)ethoxy)ethoxy)pent-2-enoyl)piperazin-1-yl)-8-fluoro-7-(3-hydroxynaphthalen-1-yl)quinazolin-2-yl)amino)-N,N-dimethylpropanamide] |  |
| C (Percent Degradation: C ≤ 35) |  |  |  |  |  |  |  | Cc1ncsc1-c1ccc([C@H](C)NC(=O)[C@@H]2C[C@@H](O)CN2C(=O)[C@@H](NC(=O)COCCOCCOCCN(C)C(=O)CCNc2nc(N3CCN(C(=O)C(O)O)CC3)c3cc(Cl)c(-c4c(O)cccc4F)c(F)c3n2)C(C)(C)C)cc1 (atropisomer, axis not shown) [compound 238, (2S,4R)-1-((S)-2-(tert-butyl)-18-((6-chloro-4-(4-(2,2-dihydroxyacetyl)piperazin-1-yl)-8-fluoro-7-((S)-2-fluoro-6-hydroxyphenyl)quinazolin-2-yl)amino)-15-methyl-4,16-dioxo-6,9,12-trioxa-3,15-diazaoctadecanoyl)-4-hydroxy-N-((S)-1-(4-(4-methylthiazol-5-yl)phenyl)ethyl)pyrrolidine-2-carboxamide] |  |
|  |  |  |  | C (Percent Degradation: C ≤ 35) | C (Percent Degradation: C ≤ 35) | C (Percent Degradation: C ≤ 35) | ≤ 35 | CN[C@@H](C)C(=O)N[C@H](C(=O)N1CCC[C@H]1c1nc(-c2ccc(OCCOCCOCCOCCN(C)C(=O)CCNc3nc(N4CCN(C(C)=O)CC4)c4cc(Cl)c(-c5cc(O)cc6ccccc56)c(F)c4n3)c3ccccc23)cs1)C1CCCCC1 [compound 268, 3-((4-(4-acetylpiperazin-1-yl)-6-chloro-8-fluoro-7-(3-hydroxynaphthalen-1-yl)quinazolin-2-yl)amino)-N-(2-(2-(2-(2-((4-(2-((S)-1-((S)-2-cyclohexyl-2-((S)-2-(methylamino)propan-amido)acetyl)pyrrolidin-2-yl)thiazol-4-yl)naphthalen-1-yl)oxy)ethoxy)ethoxy)eth-oxy)ethyl)-N-methylpropanamide] |  |
|  | C (C ≤ 35) | C (C ≤ 35) | ≤ 35 |  |  |  |  | CCC(=O)N1CCN(c2nc(NCCC(=O)N(C)CCOCCOCCOCCOCCOCC(=O)N[C@H](C(=O)N3C[C@H](O)C[C@H]3C(=O)N[C@@H](C)c3ccc(-c4scnc4C)cc3)C(C)(C)C)nc3c(F)c(-c4cc(O)cc5ccccc45)c(Cl)cc23)CC1 [compound 190, (2S,4R)-1-((2S)-2-(tert-butyl)-24-((6-chloro-8-fluoro-7-(3-hydroxynaphthalen-1-yl)-4-(4-propionylpiperazin-1-yl)quinazolin-2-yl)amino)-21-methyl-4,22-dioxo-6,9,12,15,18-pentaoxa-3,21-diazatetracosanoyl)-4-hydroxy-N-((S)-1-(4-(4-methylthiazol-5-yl)phenyl)ethyl)pyrrolidine-2-carboxamide] | Percent Degradation at Indicated Concentration (μM): 3 (H2030 cells, 3 μM): C (C ≤ 35) |
